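Values below derive from 48-hour exposures of cells grown in 96-well plates, with endpoints linearly interpolated between the two concentrations bracketing the appropriate inhibition level. The concentration for 50% growth inhibition is given as GI50. TGI denotes the concentration required for complete inhibition of growth.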
Experiments:
Assay in all cases: NCI anticancer screen, dose series, 48 h
[1] = test system: OVCAR-8 ovarian
[2] = test system: KM12 colon
[3] = test system: NCI-H460 lung
[4] = test system: CAKI-1 renal
[5] = test system: UACC-62 melanoma
[6] = test system: T-47D breast
[7] = test system: HCT-116 colon
[8] = test system: ACHN renal
[9] = test system: SF-539 CNS
[10] = test system: A549 NSCLC

Row | SMILES | GI50 [1] [µM] | TGI [1] [µM] | GI50 [2] [µM] | TGI [2] [µM] | GI50 [3] [µM] | TGI [3] [µM] | GI50 [4] [µM] | TGI [4] [µM] | GI50 [5] [µM] | TGI [5] [µM] | GI50 [6] [µM] | TGI [6] [µM] | GI50 [7] [µM] | TGI [7] [µM] | GI50 [8] [µM] | TGI [8] [µM] | GI50 [9] [µM] | TGI [9] [µM] | TGI [10] [µM] | GI50 [10] [µM]
1 | NCCOc1ccccc1/C=C1\c2ccccc2-c2ccc([N+](=O)[O-])cc21 | 1.53 | 3.33 | 1.55 | 2.94 | 0.488 | 1.66 | 1.38 | 2.72 | 1.54 | 2.92 | 1.66 | 3.44 | 1.25 | 2.51 | 1.38 | 2.69 | 1.79 | 3.18 |  | 
2 | Cc1ccc(-c2cc(=O)c3cc(C)c(C)c(C(=O)O)c3o2)cc1N |  | > 100 |  | > 100 |  | > 100 |  | > 100 |  | > 100 |  |  |  | > 100 |  | > 100 |  | > 100 | > 100 | 
3 | C=CC1(NS(=O)(=O)c2ccc(C)cc2)CCC(C(C)(C)C)CC1 (stereo unspecified) |  | > 100 |  | > 100 |  | > 100 |  | > 100 |  | > 100 |  |  |  | > 100 |  | > 100 |  | > 100 | > 100 | 
4 | CC1(C)C=N[N+]2(C)C3C=CC(CC3)C12 (stereo unspecified) |  | > 100 |  | > 100 |  | > 100 |  | > 100 |  | > 100 |  |  |  | > 100 |  | > 100 |  | > 100 | > 100 | 
5 | CN1CCN(c2nc(NCCCNc3ccnc4cc(Cl)ccc34)c3ccccc3n2)CC1 | 5.92 | 20.7 | 4.02 | 16.1 | 3.53 | 13.4 |  |  | 1.95 | 3.86 | 2.39 | 6.73 | 3.3 | 12.1 | 3.92 | 13.6 | 1.74 | 3.5 | 19.2 | 5.01
6 | O=[N+]([O-])c1ccccc1C=NC12CC3CC(CC(C3)C1)C2 |  | > 100 |  | > 100 |  | > 100 |  | > 100 |  | > 100 |  |  |  | > 100 |  | > 100 |  | > 100 | > 100 | 
7 | CCCCc1n(Cc2ccc3ccccc3c2)cc[n+]1Cc1ccc2ccccc2c1 |  |  |  |  |  |  |  |  | 0.705 | 2.08 |  |  | 0.663 | 2.08 | 1.97 | 4.19 | 1.4 | 2.74 |  | 
8 | CN[C@@H](C)[C@H](N)c1ccccc1 |  | > 100 |  | > 100 |  | > 100 |  | > 100 |  | > 100 |  |  |  | > 100 |  | > 100 |  | > 100 | > 100 | 
9 | CSc1nc(NC2OC(COC(C)=O)C(OC(C)=O)C(OC(C)=O)C2OC(C)=O)c(-c2csc(N)n2)c(=O)n1C (stereo unspecified) |  | 86.9 |  | > 100 |  | > 100 |  | > 100 |  | 89.4 |  |  |  | > 100 |  | > 100 |  | > 100 | > 100 | 
10 | CNS(=O)(=O)NN(C)S(=O)(=O)c1ccc2ccccc2c1 |  | > 100 |  | > 100 |  |  |  | > 100 |  | > 100 |  |  |  | > 100 |  | > 100 |  | > 100 | > 100 | 
11 | Cc1ccc(NC(=S)SCCC(=O)O)cc1 |  | > 100 |  | > 100 |  | > 100 |  | > 100 |  |  |  |  |  | > 100 |  | > 100 |  | > 100 | > 100 | 
12 | COc1ccc(/C(Cl)=C(\c2ccc(OCCN(C)C)cc2)c2ccc(OC(=O)C(C)(C)C)cc2)cc1 |  | 30.4 |  | 26.4 |  | 28.7 |  | 27.8 |  | 28 |  |  |  | 24.4 |  | 29.5 |  | 26.8 | 28.3 | 
13 | Cc1cc(N2CCCC2)nc(NCc2cc(Nc3ccnc4cc(Cl)ccc34)ccc2F)n1 | 1.69 | 3.27 | 1.52 | 3.01 | 1.23 | 2.86 | 1.38 | 2.86 |  |  |  |  | 0.198 | 0.557 | 1.53 | 3.06 | 1.55 | 3.11 | 3.47 | 1.71
14 | C=C1C2CC(OC(C)=O)C3(C)C(c4ccoc4)OC(=O)[C@@H](O)[C@]13OC1C[C@H](OC(C)=O)C(C)(C)[C@H](CC(=O)OC)[C@]12C (stereo partly specified) |  | > 100 |  | > 100 |  | > 100 |  |  |  | > 100 |  |  |  | > 100 |  | > 100 |  | > 100 | > 100 | 
15 | O=[N+]([O-])c1cc(Cl)ccc1OCc1ccccc1 |  | > 100 |  | > 100 |  | > 100 |  |  |  | > 100 |  |  |  | > 100 |  | > 100 |  | > 100 | > 100 | 
16 | O=S(=O)([O-])[O-].[Cl-].[NH2-].[NH2-].[NH2-].[NH2-].[Ru+3].c1ccncc1 |  | > 100 |  | > 100 |  | > 100 |  | > 100 |  | > 100 |  |  |  | > 100 |  | > 100 |  | > 100 | > 100 | 
17 | C/C(=N\NC(=S)N1CCCCCCCCCCCC1)c1ccccn1 |  | 1.9 |  | 1.52 |  | 1.43 |  | 1.15 |  |  |  | 1.25 |  | 1.66 |  | 1.41 |  | 0.846 | 1.35 | 
18 | CCCCN(CCCC)CCC(O)c1cc2c(Cl)cc(Cl)cc2c2cc(C(F)(F)F)ccc12 (stereo unspecified) |  | 27.5 |  |  |  | 25.5 |  | 29.3 |  | 29.9 |  | 28.9 |  | 25.2 |  | 25.6 |  | 30.1 |  | 
19 | O=C1Nc2ccccc2/C1=C\c1nc(C2CCN(S(=O)(=O)c3ccc(F)cc3)CC2)n2ccccc12 | 1.39 | 6.77 |  |  | 9.97 | > 100 | 1.73 | > 100 |  |  | 4.57 | > 100 | 13.3 | > 100 | 4.07 | > 100 | 1.39 | 3.07 | > 100 | > 100
20 | CC(CNCCCNCCNCCCNCO)[N+](=O)[O-] (stereo unspecified) |  | 27.9 |  | 29.7 |  | 32.3 |  | 18.6 |  | 29.9 |  |  |  | 22.7 |  | 30.3 |  | 29.2 | 57 | 

— PubChem BioAssay (NCI)
